The structures appear in SMILES notation. Where a name gives a salt, the structure may show the parent alone.

The target in this assay is T1, LCAT (Homo sapiens, UniProt P04180).
T1 construct: The obtained fraction was dialyzed against phosphate-buffered saline (pH 7.4) and used as an enzyme source and an acceptor for LCAT; from tissue; host or cells: HDL3 fraction (1.125<specific gravity<1.210 g/mL) of plasma from a healthy person
T1 sequence (P04180 25-440): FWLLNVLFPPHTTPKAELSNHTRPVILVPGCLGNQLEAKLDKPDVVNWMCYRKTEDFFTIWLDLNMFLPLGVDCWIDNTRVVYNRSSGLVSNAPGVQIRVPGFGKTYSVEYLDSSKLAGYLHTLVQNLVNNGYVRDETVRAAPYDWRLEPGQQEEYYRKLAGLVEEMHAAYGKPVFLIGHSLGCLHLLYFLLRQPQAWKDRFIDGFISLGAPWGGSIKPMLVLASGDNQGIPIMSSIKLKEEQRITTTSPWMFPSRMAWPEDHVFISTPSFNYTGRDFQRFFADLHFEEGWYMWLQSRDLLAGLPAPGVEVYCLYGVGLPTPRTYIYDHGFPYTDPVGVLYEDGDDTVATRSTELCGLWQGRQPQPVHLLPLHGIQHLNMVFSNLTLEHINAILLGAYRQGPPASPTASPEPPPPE
Description: LCAT Activity Measurement (In Vitro). The class given is biochemical. Particulars: EC50 of LCAT activation; HDL3 fraction from plasma of a healthy person as enzyme source and acceptor; [14C]cholesterol; 37° C., approximately 16 hours. As to the method: A fraction composed of HDL3 (1.125<specific gravity<1.210 g/mL) was obtained from the plasma of a healthy person by density gradient centrifugation. The obtained fraction was dialyzed against phosphate-buffered saline (pH 7.4) and used as an enzyme source and an acceptor for LCAT. Each test drug was prepared by dissolution in dimethyl sulfoxide. [14C]Cholesterol containing DTNB (Ellman's reagent, final concentration: 0.5 mM), mercaptoethanol (final concentration: 12.5 mM), and 0.6% bovine serum albumin was added to phosphate-buffered saline (pH 7.4) containing 1 mg/mL HDL3, and the test drug was further added thereto at varying concentrations to adjust the whole amount to 80 μL. This mixture was incubated at 37° C. for approximately 16 hours. Then, a mixed solution of hexane and isopropanol (mixing ratio=3:2) was added thereto to stop the reaction. After stirring, the hexane layer was collected, and this layer was evaporated to dryness. A chloroform solution (concentration: 10 mg/mL) was added thereto, and the mixture was spotted onto a thin-layer silica gel plate and developed using a mixed solution of hexane, diethyl ether, and ethyl acetate (mixing ratio=85:15:2). The radioactivity of a portion corresponding to cholesterol oleate was measured using an imaging analyzer BAS-2500 (manufactured by Fujifilm Corp.). A sample non-supplemented with the test drug was similarly treated and assayed. The EC50 value of LCAT activation was calculated according to the expression given below relative to LCAT activity in the sample non-supplemented with the test drug.
wherein X represents the logarithm of the concentration of the test drug;
Y represents the responsiveness (LCAT activity) of the test drug;
Top represents the maximum value (maximum plateau);
Bottom represents the minimum value (minimum plateau); and
EC50 represents the 50% effective concentration.
The molecule `CC(C)Oc1ccc(N2CCC(c3n[nH]c4c3C(O)(C(F)(F)F)CC(=O)N4)CC2)nn1` (stereo not drawn) [Example 18, 4-Hydroxy-3-{1-[6-(propan-2-yloxy)pyridazin-3-yl]piperidin-4-yl}-4-(trifluoromethyl)-1,4,5,7-tetrahydro-6H-pyrazolo[3,4-b]pyridin-6-one hydrochloride] returned a half-maximal effective concentration (EC50) of 101 nM.

On to `N#Cc1ccc(N2CCC(c3n[nH]c4c3C(O)(C(F)(F)F)CC(=O)N4)CC2)cn1` (stereo not drawn) [Example 19, 5-{4-[4-Hydroxy-6-oxo-4-(trifluoromethyl)-4,5,6,7-tetrahydro-1H-pyrazolo[3,4-b]pyridin-3-yl]piperidin-1-yl}pyridine-2-carbonitrile], for which a half-maximal effect (EC50) was put at 650 nM.

For the molecule `Cc1nc(N2CCC(c3n[nH]c4c3C(O)(C(F)(F)F)CC(=O)N4)CC2)ccc1C#N` (stereo not drawn) [Example 20, 6-{4-[4-Hydroxy-6-oxo-4-(trifluoromethyl)-4,5,6,7-tetrahydro-1H-pyrazolo[3,4-b]pyridin-3-yl]piperidin-1-yl}-2-methylpyridine-3-carbonitrile], it took 290 nM to reach a half-maximal effect (EC50).

For `N#Cc1ccc(N2CCC(c3n[nH]c4c3C(O)(C(F)(F)F)CC(=O)N4)CC2)nc1Cl` (stereo not drawn) [Example 21, 2-Chloro-6-{4-[4-hydroxy-6-oxo-4-(trifluoromethyl)-4,5,6,7-tetrahydro-1H-pyrazolo[3,4-b]pyridin-3-yl]piperidin-1-yl}pyridine-3-carbonitrile], a half-maximal response (EC50) required 270 nM.

As to `N#Cc1cccc(N2CCC(c3n[nH]c4c3C(O)(C(F)(F)F)CC(=O)N4)CC2)n1` (stereo not drawn) [Example 22, 6-{4-[4-Hydroxy-6-oxo-4-(trifluoromethyl)-4,5,6,7-tetrahydro-1H-pyrazolo[3,4-b]pyridin-3-yl]piperidin-1-yl}pyridine-2-carbonitrile], the EC50 came to 180 nM.

`N#Cc1cccc(N2CCC(c3n[nH]c4c3C(O)(C(F)(F)F)CC(=O)N4)CC2)c1` (stereo not drawn) [Example 23, 3-{4-[4-Hydroxy-6-oxo-4-(trifluoromethyl)-4,5,6,7-tetrahydro-1H-pyrazolo[3,4-b]pyridin-3-yl]piperidin-1-yl}benzonitrile] came in with an EC50 of 120 nM.

`O=C1CC(O)(C(F)(F)F)c2c(C3CCN(c4nc5ccccc5o4)CC3)n[nH]c2N1` (stereo not drawn) [Example 24, 3-[1-(1,3-Benzoxazol-2-yl)piperidin-4-yl]-4-hydroxy-4-(trifluoromethyl)-1,4,5,7-tetrahydro-6H-pyrazolo[3,4-b]pyridin-6-one]: it took 150 nM to reach a half-maximal effect (EC50).

Regarding `O=C1CC(O)(C(F)(F)F)c2c(C3CCN(c4nc5ccccc5s4)CC3)n[nH]c2N1` (stereo not drawn) [Example 25, 3-[1-(1,3-Benzothiazol-2-yl)piperidin-4-yl]-4-hydroxy-4-(trifluoromethyl)-1,4,5,7-tetrahydro-6H-pyrazolo[3,4-b]pyridin-6-one], the EC50 worked out at 200 nM.

In turn, `Cc1cncc(N2CCC(c3n[nH]c4c3C(O)(C(F)(F)F)CC(=O)N4)CC2)n1` (stereo not drawn) [Example 26, 4-Hydroxy-3-[1-(6-methylpyrazin-2-yl)piperidin-4-yl]-4-(trifluoromethyl)-1,4,5,7-tetrahydro-6H-pyrazolo[3,4-b]pyridin-6-one] gave a concentration giving a half-maximal response (EC50) of 260 nM. This EC50 and that of the molecule before are within 1.5-fold of each other.

The molecule `O=C1CC(O)(C(F)(F)F)c2c(C3CCN(c4cccnc4)CC3)n[nH]c2N1` (stereo not drawn) [Example 27, 4-Hydroxy-3-[1-(pyridin-3-yl)piperidin-4-yl]-4-(trifluoromethyl)-1,4,5,7-tetrahydro-6H-pyrazolo[3,4-b]pyridin-6-one] returned a concentration for a half-maximal effect (EC50) of 2410 nM.

In turn, `COc1ccc(N2CCC(c3n[nH]c4c3C(O)(C(F)(F)F)CC(=O)N4)CC2)nn1` (stereo not drawn) [Example 28, 4-Hydroxy-3-[1-(6-methoxypyridazin-3-yl)piperidin-4-yl]-4-(trifluoromethyl)-1,4,5,7-tetrahydro-6H-pyrazolo[3,4-b]pyridin-6-one] returned a concentration for a half-maximal effect (EC50) of 300 nM. Compared with the last molecule, the EC50 is about 8-fold lower.

The molecule `O=C1CC(O)(C(F)(F)F)c2c(C3CCN(c4nccs4)CC3)n[nH]c2N1` (stereo not drawn) [Example 29, 4-Hydroxy-3-[1-(1,3-thiazol-2-yl)piperidin-4-yl]-4-(trifluoromethyl)-1,4,5,7-tetrahydro-6H-pyrazolo[3,4-b]pyridin-6-one] registered an EC50 of 1880 nM.

Molecule `COc1ccnc(N2CCC(c3n[nH]c4c3C(O)(C(F)(F)F)CC(=O)N4)CC2)n1` (stereo not drawn) [Example 30, 4-Hydro-3-[1-(4-methoxypyrimidin-2-yl)piperidin-4-yl]-4-(trifluoromethyl)-1,4,5,7-tetrahydro-6H-pyrazolo[3,4-b]pyridin-6-one] returned a concentration for a half-maximal effect (EC50) of 2460 nM.

Regarding `N#Cc1ccc(N2CCC(c3n[nH]c4c3C(O)(C(F)(F)F)CC(=O)N4)CC2)nc1` (stereo not drawn) [Example 31, 6-{4-[4-Hydroxy-6-oxo-4-(trifluoromethyl)-4,5,6,7-tetrahydro-1H-pyrazolo[3,4-b]pyridin-3-yl]piperidin-1-yl}pyridine-3-carbonitrile], the EC50 came out at 330 nM.

Molecule `COc1ccc(N2CCC(c3n[nH]c4c3C(O)(C(F)(F)F)CC(=O)N4)CC2)cn1` (stereo not drawn) [Example 32, 4-Hydroxy-3-[1-(6-methoxypyridin-3-yl)piperidin-4-yl]-4-(trifluoromethyl)-1,4,5,7-tetrahydro-6H-pyrazolo[3,4-b]pyridin-6-one] displayed a concentration giving a half-maximal response (EC50) of 300 nM.

`N#Cc1ccnc(N2CCC(c3n[nH]c4c3C(O)(C(F)(F)F)CC(=O)N4)CC2)c1` (stereo not drawn) [Example 33, 2-{4-[4-Hydroxy-6-oxo-4-(trifluoromethyl)-4,5,6,7-tetrahydro-1H-pyrazolo[3,4-b]pyridin-3-yl]piperidin-1-yl}pyridine-4-carbonitrile]: a half-maximal effect (EC50) was put at 56 nM. Compared with the last molecule, the EC50 is about 5.4-fold lower.

For the molecule `O=C1CC(O)(C(F)(F)F)c2c(C3CCN(c4ccc(Cl)nn4)CC3)n[nH]c2N1` (stereo not drawn) [Example 34, 3-[1-(6-Chloropyridazin-3-yl)piperidin-4-yl]-4-hydroxy-4-(trifluoromethyl)-1,4,5,7-tetrahydro-6H-pyrazolo[3,4-b]pyridin-6-one], the concentration giving a half-maximal response (EC50) stood at 150 nM. Against the preceding molecule, the EC50 is about 2.7-fold higher.

The molecule `N#Cc1ccc(N2CCC(c3n[nH]c4c3C(O)(C(F)(F)F)CC(=O)N4)CC2)cc1` (stereo not drawn) [Example 35, 4-{4-[4-Hydroxy-6-oxo-4-(trifluoromethyl)-4,5,6,7-tetrahydro-1H-pyrazolo[3,4-b]pyridin-3-yl]piperidin-1-yl}benzonitrile] returned a concentration giving a half-maximal response (EC50) of 380 nM.

In turn, `COc1ccc(N2CCC(c3n[nH]c4c3C(O)(C(F)(F)F)CC(=O)N4)CC2)nc1` (stereo not drawn) [Example 36, 4-Hydroxy-3-[1-(5-methoxypyridin-2-yl)piperidin-4-yl]-4-(trifluoromethyl)-1,4,5,7-tetrahydro-6H-pyrazolo[3,4-b]pyridin-6-one] registered an EC50 of 420 nM.

Take `N#Cc1cncc(N2CCC(c3n[nH]c4c3C(O)(C(F)(F)F)CC(=O)N4)CC2)c1` (stereo not drawn) [Example 37, 5-{4-[4-Hydroxy-6-oxo-4-(trifluoromethyl)-4,5,6,7-tetrahydro-1H-pyrazolo[3,4-b]pyridin-3-yl]piperidin-1-yl}pyridine-3-carbonitrile]: a half-maximal response (EC50) required 71 nM.

Consider `N#Cc1ncc(N2CCC(c3n[nH]c4c3C(O)(C(F)(F)F)CC(=O)N4)CC2)cc1F` (stereo not drawn) [Example 38, 3-Fluoro-5-{4-[4-hydroxy-6-oxo-4-(trifluoromethyl)-4,5,6,7-tetrahydro-1H-pyrazolo[3,4-b]pyridin-3-yl]piperidin-1-yl}pyridine-2-carbonitrile], for which the concentration for a half-maximal effect (EC50) was 43 nM.

Consider `COc1ccnc(N2CCC(c3n[nH]c4c3C(O)(C(F)(F)F)CC(=O)N4)CC2)c1` (stereo not drawn) [Example 39, 4-Hydroxy-3-[1-(4-methoxypyridin-2-yl)piperidin-4-yl]-4-(trifluoromethyl)-1,4,5,7-tetrahydro-6H-pyrazolo[3,4-b]pyridin-6-one], for which the half-maximal effective concentration (EC50) was 330 nM.

On to `COc1cncc(N2CCC(c3n[nH]c4c3C(O)(C(F)(F)F)CC(=O)N4)CC2)c1` (stereo not drawn) [Example 40, 4-Hydroxy-3-[1-(5-methoxypyridin-3-yl)piperidin-4-yl]-4-(trifluoromethyl)-1,4,5,7-tetrahydro-6H-pyrazolo[3,4-b]pyridin-6-one], for which it took 1710 nM to reach a half-maximal effect (EC50).

Turning to `O=C1CC(O)(C(F)(F)F)c2c(C3CCN(c4ccc(C(F)(F)F)nc4)CC3)n[nH]c2N1` (stereo not drawn) [Example 41, 4-Hydroxy-4-(trifluoromethyl)-3-{1-[6-(trifluoromethyl)pyridin-3-yl]piperidin-4-yl}-1,4,5,7-tetrahydro-6H-pyrazolo[3,4-b]pyridin-6-one], the EC50 stood at 26 nM.

Values taken from patent US9150575B2, “Piperidinylpyrazolopyridine derivative” (Daiichi Sankyo Company, Limited, priority 2012, dated 2015).
